Source: patent US20120202794A1 (priority 2011, published 2012)

Tests used:
[1] = Cell cytotoxicity assay (MTS), CC90 as reported in Table 1, cell line not stated; format: cell-based; conditions: human; MTS assay; 8 days incubation; cell line not given
Method in brief: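 MTS read-out (490 nm, 2 h dye step) after 8-day exposure at 37° C. Huh7, HepG2, BxPC3 were seeded at 2×10^3 and CEM at 5×10^3 cells/well, with compound serially diluted from 100 μM. CC90 comes from comparison with untreated control wells.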

[2] = system: HCV Replicon 1b; assay: HCV inhibition assay, HCV replicon 1b (Clone A or ET-lunet cells; RT-PCR or luciferase reporter); format: cell-based; conditions: Hepatitis C virus, 96 h, HCV replicon 1b; 4 days incubation; read-out: Replicon 1b potency EC90
Method in brief: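 Inhibition read either as luciferase signal (ET replicon) or as HCV 5′-NTR RNA by RT-PCR relative to rRNA, % = (1−2^−ΔΔCt)×100, against DMSO controls, giving EC50 and EC90. Cells: Clone A or ET-lunet, seeded 1500 or 3000/well, exposed 4 days at 37 °C, 5% CO2, 0.5% DMSO.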

| Compound | CC90 at 8 days [1] | EC90 [2] |
| --- | --- | --- |
| CC(C)C[C@H]1C(=O)N[C@@H](c2ccc(F)cc2)CN1C(=O)c1cc(-c2ccc(F)cc2)on1 [Compound 345, (3S,6S)-6-(4-fluorophenyl)-4-(5-(4-fluorophenyl)isoxazole-3-carbonyl)-3-isobutyl-piperazin-2-one] | > 10000 nM | 650 nM |
| CC(C)C[C@H]1C(=O)N[C@@H](c2ccc(F)cc2)CN1C(=O)[C@@H]1C[C@H]1c1ccccc1 [Compound 347, (3S,6S)-6-(4-fluorophenyl)-3-isobutyl-4-((1R,2R)-2-phenylcyclopropanecarbonyl)-piperazin-2-one] | > 10000 nM | 2050 nM |
| Cc1ccc([C@H]2CN(C(=O)c3cc(-c4ccc(F)cc4)on3)[C@@H](CC(C)C)C(=O)N2)cc1 [Compound 348, (3S,6S)-4-(5-(4-fluorophenyl)isoxazole-3-carbonyl)-3-isobutyl-6-(p-tolyl)piperazin-2-one] | > 10000 nM | 1800 nM |
| CC(C)C[C@H]1CN(C(=O)c2cn(-c3ccc(Cl)cc3)nn2)[C@@H](CC(C)C)C(=O)N1 [Compound 350, (3S,6S)-4-(1-(4-chlorophenyl)-1H-1,2,3-triazole-4-carbonyl)-3,6-diisobutylpiperazin-2-one] | > 10000 nM | 1960 nM |
| CC(C)C[C@H]1CN(C(=O)c2cn(-c3ccc(F)cc3)nn2)[C@@H](CC(C)C)C(=O)N1 [Compound 351, (3S,6S)-4-(1-(4-fluorophenyl)-1H-1,2,3-triazole-4-carbonyl)-3,6-diisobutylpiperazin-2-one] | > 10000 nM | 1630 nM |
| CC(C)C[C@H]1C(=O)N[C@@H](c2ccccc2Cl)CN1C(=O)c1cc(-c2ccc(F)cc2)on1 [Compound 352, (3S,6S)-6-(2-chlorophenyl)-4-(5-(4-fluorophenyl)isoxazole-3-carbonyl)-3-isobutyl-piperazin-2-one] | > 10000 nM | 210 nM |
| CC(C)C[C@H]1C(=O)N[C@@H](c2ccccc2Cl)CN1C(=O)[C@@H]1C[C@H]1c1ccccc1 [Compound 354, (3S,6S)-6-(2-chlorophenyl)-3-isobutyl-4-((1R,2R)-2-phenylcyclopropanecarbonyl)-piperazin-2-one] | > 10000 nM | 1850 nM |
| CC(C)C[C@H]1C(=O)N[C@@H](c2ccccc2F)CN1C(=O)[C@@H]1C[C@H]1c1ccccc1 [Compound 357, (3S,6S)-6-(2-fluorophenyl)-3-isobutyl-4-((1R,2R)-2-phenylcyclopropanecarbonyl)-piperazin-2-one] | > 10000 nM | 520 nM |
| CC(C)C[C@H]1C(=O)N[C@@H](c2ccc(Cl)cc2)CN1C(=O)c1cc(-c2ccc(F)cc2)on1 [Compound 358, (3S,6S)-6-(4-chlorophenyl)-4-(5-(4-fluorophenyl)isoxazole-3-carbonyl)-3-isobutyl-piperazin-2-one] | > 10000 nM | 1530 nM |
| CC(C)C[C@H]1C(=O)N[C@@H](c2ccc(Cl)cc2)CN1C(=O)[C@@H]1C[C@H]1c1ccccc1 [Compound 360, (3S,6S)-6-(4-chlorophenyl)-3-isobutyl-4-((1R,2R)-2-phenylcyclopropanecarbonyl)-piperazin-2-one] | > 10000 nM | 3640 nM |
| Cc1ccccc1[C@H]1CN(C(=O)c2cc(-c3ccc(F)cc3)on2)[C@@H](CC(C)C)C(=O)N1 [Compound 361, (3S,6S)-4-(5-(4-fluorophenyl)isoxazole-3-carbonyl)-3-isobutyl-6-(o-tolyl)piperazin-2-one] | > 10000 nM | 1420 nM |
| Cc1ccccc1[C@H]1CN(C(=O)[C@@H]2C[C@H]2c2ccccc2)[C@@H](CC(C)C)C(=O)N1 [Compound 363, (3S,6S)-3-isobutyl-4-((1R,2R)-2-phenylcyclopropanecarbonyl)-6-(o-tolyl)piperazin-2-one] | > 10000 nM | 2070 nM |
| CC(C)C[C@H]1C(=O)N[C@@H](c2ccc(C(F)(F)F)cc2)CN1C(=O)[C@@H]1C[C@H]1c1ccccc1 [Compound 364, (3S,6S)-3-isobutyl-4-((1R,2R)-2-phenylcyclopropanecarbonyl)-6-(4-(trifluoro-methyl)phenyl)piperazin-2-one] | > 10000 nM | > 10000 nM |
| CC(C)C[C@H]1C(=O)N[C@@H](c2ccc(C(F)(F)F)cc2)CN1C(=O)c1cc(-c2ccc(F)cc2)on1 [Compound 366, (3S,6S)-4-(5-(4-fluorophenyl)isoxazole-3-carbonyl)-3-isobutyl-6-(4-(trifluoromethyl)-phenyl)piperazin-2-one] | > 10000 nM | 6000 nM |
| CC(C)C[C@H]1C(=O)N[C@@H](c2cccc(F)c2)CN1C(=O)c1cc(-c2ccc(F)cc2)on1 [Compound 367, (3S,6S)-6-(3-fluorophenyl)-4-(5-(4-fluorophenyl)isoxazole-3-carbonyl)-3-isobutylpiperazin-2-one] | > 10000 nM | 270 nM |
| CC(C)C[C@H]1C(=O)N[C@@H](c2cccc(F)c2)CN1C(=O)[C@@H]1C[C@H]1c1ccccc1 [Compound 369, (3S,6S)-6-(3-fluorophenyl)-3-isobutyl-4-((1R,2R)-2-phenylcyclopropanecarbonyl)-piperazin-2-one] | > 10000 nM | 1630 nM |
| CC(C)C[C@H]1C(=O)N[C@@H](c2ccccc2Cl)CN1C(=O)c1noc(-c2ccc(F)cc2)n1 [Compound 371, (3S,6S)-6-(2-chlorophenyl)-4-(5-(4-fluorophenyl)-1,2,4-oxadiazole-3-carbonyl)-3-isobutylpiperazin-2-one] | > 10000 nM | 470 nM |
| CC(C)C[C@H]1C(=O)N[C@@H](c2ccccc2F)CN1C(=O)c1cc(-c2ccc(F)cc2)no1 [Compound 372, (3S,6S)-6-(2-fluorophenyl)-4-(3-(4-fluorophenyl)isoxazole-5-carbonyl)-3-isobutylpiperazin-2-one] | > 10000 nM | 700 nM |
| CC(C)C[C@H]1C(=O)N[C@@H](c2ccccc2F)CN1C(=O)/C=C/c1ccc(F)cc1F [Compound 374, (3S,6S)-4-((E)-3-(2,4-difluorophenyl)acryloyl)-6-(2-fluorophenyl)-3-isobutylpipera-zin-2-one] | > 10000 nM | 750 nM |
| CC(C)C[C@H]1C(=O)N[C@@H](c2ccccc2)CN1C(=O)c1noc(-c2ccc(F)cc2)c1F [Compound 376, (3S,6S)-4-(4-fluoro-5-(4-fluorophenyl)isoxazole-3-carbonyl)-3-isobutyl-6-phenyl-piperazin-2-one] | > 10000 nM | 500 nM |
| CC(C)C[C@H]1CN(C(=O)c2noc(-c3ccc(F)cc3)c2F)[C@@H](CC(C)C)C(=O)N1 [Compound 379, (3S,6S)-4-(4-fluoro-5-(4-fluorophenyl)isoxazole-3-carbonyl)-3,6-diisobutylpiperazin-2-one] | > 10000 nM | 210 nM |
| CC(C)C[C@H]1C(=O)N[C@@H](c2ccccc2F)CN1C(=O)c1noc(-c2ccc(F)cc2)c1F [Compound 380, (3S,6S)-4-(4-fluoro-5-(4-fluorophenyl)isoxazole-3-carbonyl)-6-(2-fluorophenyl)-3-isobutylpiperazin-2-one] | > 10000 nM | 180 nM |
| CC(C)C[C@H]1C(=O)N[C@@H](C2CCCC2)CN1C(=O)c1noc(-c2ccc(F)cc2)c1F [Compound 381, (3S,6S)-6-cyclopentyl-4-(4-fluoro-5-(4-fluorophenyl)isoxazole-3-carbonyl)-3-isobutylpiperazin-2-one] | > 10000 nM | 250 nM |
| CC(C)C[C@H]1C(=O)N[C@@H](C2CCCCC2)CN1C(=O)c1noc(-c2ccc(F)cc2)c1F [Compound 382, (3S,6S)-6-cyclohexyl-4-(4-fluoro-5-(4-fluorophenyl)isoxazole-3-carbonyl)-3-isobutylpiperazin-2-one] | > 10000 nM | 370 nM |
| CC(C)C[C@H]1CN(C(=O)c2noc(-c3ccc(F)cc3F)c2F)[C@@H](CC(C)C)C(=O)N1 [Compound 383, (3S,6S)-4-(5-(2,4-difluorophenyl)-4-fluoroisoxazole-3-carbonyl)-3,6-diisobutyl-piperazin-2-one] | > 10000 nM | 710 nM |
| CC(C)C[C@H]1C(=O)N[C@@H](c2ccccc2)CN1C(=O)c1noc(-c2ccc(F)cc2F)c1F [Compound 385, (3S,6S)-4-(5-(2,4-difluorophenyl)-4-fluoroisoxazole-3-carbonyl)-3-isobutyl-6-phenylpiperazin-2-one] | > 10000 nM | 500 nM |
| CC(C)C[C@H]1C(=O)N[C@@H](c2ccccc2F)CN1C(=O)c1noc(-c2ccc(F)cc2F)c1F [Compound 386, (3S,6S)-4-(5-(2,4-difluorophenyl)-4-fluoroisoxazole-3-carbonyl)-6-(2-fluorophenyl)-3-isobutylpiperazin-2-one] | > 10000 nM | 570 nM |
| CCC[C@H]1CN(C(=O)c2noc(-c3ccc(F)cc3F)c2F)[C@@H](CC(C)C)C(=O)N1 [Compound 387, (3S,6S)-4-(5-(2,4-difluorophenyl)-4-fluoroisoxazole-3-carbonyl)-3-isobutyl-6-propylpiperazin-2-one] | > 10000 nM | 260 nM |
| CC(C)C[C@H]1C(=O)N[C@@H](C2CCCC2)CN1C(=O)c1noc(-c2ccc(F)cc2F)c1F [Compound 388, (3S,6S)-6-cyclopentyl-4-(5-(2,4-difluorophenyl)-4-fluoroisoxazole-3-carbonyl)-3-isobutylpiperazin-2-ono] | > 10000 nM | 670 nM |
| CC(C)C[C@H]1C(=O)N[C@@H](C2CCCCC2)CN1C(=O)c1noc(-c2ccc(F)cc2F)c1F [Compound 389, (3S,6S)-6-cyclohexyl-4-(5-(2,4-difluorophenyl)-4-fluoroisoxazole-3-carbonyl)-3-isobutylpiperazin-2-one] | > 10000 nM | 1450 nM |
